Data on 13 compounds can be found in ChEMBL document CHEMBL5226326, “Discovery of 1-Benzoyl 4-Phenoxypiperidines as Small-Molecule Inhibitors of the β-Catenin/B-Cell Lymphoma 9 Protein-Protein Interaction” (J Med Chem, 2021).

Assay [1] has as its target T1, beta-catenin-B-cell lymphoma 9 protein complex (Homo sapiens) (UniProt P35222+O00512). Kind of assay: Inhibition of beta-catenin/BCL9 protein-protein interaction in human HCT-116 cells at 1 to 12.5 uM incubated for 24 hr by Co-immunoprecipitation assay. As to conditions: dose 1-12.5 µM. It counts as cell-based.
For assay [2], the species on record is Homo sapiens. Kind of assay: Selectivity ratio, ratio of Ki for inhibition of full length beta-catenin (1 to 781 residues) (unknown origin) expressed in Escherichia coli BL21 (DE3)/N-terminal biotinylated human BCL9 HD2 (350 to 375 residues) protein-protein interaction to Ki for inhibition of full length beta-catenin (1 to 686 residues) (unknown origin) expressed in Escherichia coli BL21 (DE3)/N-terminal biotinylated human E-cadherin (824 to 877 residues) protein-protein interaction.

Assay [3] relates to SW480. Kind of assay: Inhibition of Wnt/beta-catenin signaling pathway in human SW480 cells assessed as reduction in Axin2 level at 1 to 12.5 uM incubated for 24 hrs by western blot analysis. The note with it: dose 1-12.5 µM. It counts as cell-based. Background: In western blotting, separated proteins are transferred to a membrane and probed.
Assay [4] concerns SW480. Put plainly: Inhibition of Wnt/beta-catenin transactivation signalling in human SW480 cells transfected with renilla luciferase and FOPFlash reporter gene at 6.25 uM incubated for 24 hrs by dual-luciferase assay (reference value: 100%). It counts as cell-based. The note with it: values are per cent of control. (Reporter assays use an easily measured gene product as a stand-in for the process of interest.)

Assay [5] concerns the target Catenin beta-1/Cadherin-1 (Homo sapiens) (UniProt P35222+P12830). Put plainly: Inhibition of beta-catenin/E-cadherin protein-protein interaction in human HCT-116 cells at 1 to 12.5 uM incubated for 24 hr by Co-immunoprecipitation assay. It counts as cell-based. The note with it: dose 1-12.5 µM.
Assay [6] concerns SW480. Put plainly: Inhibition of Wnt/beta-catenin signaling pathway in human SW480 cells assessed as reduction in BCL9L level at 12.5 uM incubated for 24 hrs by qRT-PCR analysis (reference value: 100%). It counts as cell-based. As to conditions: values are per cent of control. (Quantitative PCR measures a nucleic acid by following its amplification.)
For assay [7], the system named is SW480. Put plainly: Inhibition of Wnt/beta-catenin transactivation signalling in human SW480 cells transfected with renilla luciferase and FOPFlash reporter gene at 3.125 uM incubated for 24 hrs by dual-luciferase assay (reference value: 100%). As to conditions: values are per cent of control. It counts as cell-based.
The species named for assay [8] is Homo sapiens. Put plainly: Selectivity ratio, ratio of IC50 for inhibition of Wnt/beta-catenin transactivation signalling in human HEK293 cells transfected with TOPFlash reporter gene to IC50 for inhibition of Wnt/beta-catenin D145A/E155A mutant transactivation signalling in human HEK293 cells transfected with TOPFlash reporter gene. It counts as cell-based.
The test system of assay [9] is SW480. Kind of assay: Inhibition of Wnt/beta-catenin signaling pathway in human SW480 cells assessed as reduction in HPRT level at 12.5 uM incubated for 24 hrs by qRT-PCR analysis (reference value: 100%). It counts as cell-based. As to conditions: values are per cent of control.
Assay [10] has as its system SW480. Kind of assay: Inhibition of Wnt/beta-catenin transactivation signalling in human SW480 cells transfected with renilla luciferase and FOPFlash reporter gene at 1.56 uM incubated for 24 hrs by dual-luciferase assay (reference value: 100%). It counts as cell-based. As to conditions: values are per cent of control.
The test system of assay [11] is SW480. Kind of assay: Inhibition of Wnt/beta-catenin signaling pathway in human SW480 cells assessed as reduction in Axin2 level at 12.5 uM incubated for 24 hrs by qRT-PCR analysis (reference value: 100%). It counts as cell-based. The note with it: values are per cent of control.
Assay [12] concerns SW480. Kind of assay: Inhibition of Wnt/beta-catenin signaling pathway in human SW480 cells assessed as reduction in MMP7 level at 12.5 uM incubated for 24 hrs by qRT-PCR analysis (reference value: 100%). It counts as cell-based. As to conditions: values are per cent of control.
Assay [13] concerns SW480. Kind of assay: Inhibition of full length beta-catenin E155A mutant/N-terminal biotinylated human BCL9 HD2 (350 to 375 residues) protein-protein interaction in human SW480 cells at 1 to 10 uM incubated for 3 hr by immunoblot based pull-down assay. It counts as cell-based. As to conditions: dose 1-10 µM.
For assay [14], the target named is T1, beta-catenin-B-cell lymphoma 9 protein complex (Homo sapiens). Kind of assay: Inhibition of full length wild type beta-catenin/N-terminal biotinylated human BCL9 HD2 (350 to 375 residues) protein-protein interaction in human SW480 cells at 1 to 10 uM incubated for 3 hr by immunoblot based pull-down assay. It counts as cell-based. As to conditions: dose 1-10 µM.

Assay [15] deals with SW480. Kind of assay: Inhibition of full length beta-catenin D145A mutant/N-terminal biotinylated human BCL9 HD2 (350 to 375 residues) protein-protein interaction in human SW480 cells at 1 to 10 uM incubated for 3 hr by immunoblot based pull-down assay. As to conditions: dose 1-10 µM. It counts as cell-based.
Assay [16] has as its target T2, beta-catenin-B-cell lymphoma 9 protein complex (Homo sapiens, UniProt P35222).
T2 sequence (P35222 whole entry): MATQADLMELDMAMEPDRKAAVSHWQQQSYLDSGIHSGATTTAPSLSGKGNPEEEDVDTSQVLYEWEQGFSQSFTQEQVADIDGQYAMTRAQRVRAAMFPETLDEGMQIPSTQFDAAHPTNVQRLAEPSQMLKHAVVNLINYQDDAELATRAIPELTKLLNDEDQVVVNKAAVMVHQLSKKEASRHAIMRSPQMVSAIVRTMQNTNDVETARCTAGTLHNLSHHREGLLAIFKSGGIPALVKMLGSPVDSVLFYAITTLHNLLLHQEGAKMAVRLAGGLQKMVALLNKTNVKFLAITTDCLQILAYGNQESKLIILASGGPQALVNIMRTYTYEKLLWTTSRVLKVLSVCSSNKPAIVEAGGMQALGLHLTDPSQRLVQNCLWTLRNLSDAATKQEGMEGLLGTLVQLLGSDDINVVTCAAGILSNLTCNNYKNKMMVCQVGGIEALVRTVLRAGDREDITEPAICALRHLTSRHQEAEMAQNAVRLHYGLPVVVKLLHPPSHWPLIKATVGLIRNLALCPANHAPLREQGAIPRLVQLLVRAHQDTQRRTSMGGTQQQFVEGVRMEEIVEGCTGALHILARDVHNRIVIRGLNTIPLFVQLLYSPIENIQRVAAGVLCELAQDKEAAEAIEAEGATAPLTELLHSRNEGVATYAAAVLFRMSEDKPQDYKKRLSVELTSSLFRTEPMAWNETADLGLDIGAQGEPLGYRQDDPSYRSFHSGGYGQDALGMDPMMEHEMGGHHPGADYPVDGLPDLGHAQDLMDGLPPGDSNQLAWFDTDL
T2 sequence (O00512 whole entry): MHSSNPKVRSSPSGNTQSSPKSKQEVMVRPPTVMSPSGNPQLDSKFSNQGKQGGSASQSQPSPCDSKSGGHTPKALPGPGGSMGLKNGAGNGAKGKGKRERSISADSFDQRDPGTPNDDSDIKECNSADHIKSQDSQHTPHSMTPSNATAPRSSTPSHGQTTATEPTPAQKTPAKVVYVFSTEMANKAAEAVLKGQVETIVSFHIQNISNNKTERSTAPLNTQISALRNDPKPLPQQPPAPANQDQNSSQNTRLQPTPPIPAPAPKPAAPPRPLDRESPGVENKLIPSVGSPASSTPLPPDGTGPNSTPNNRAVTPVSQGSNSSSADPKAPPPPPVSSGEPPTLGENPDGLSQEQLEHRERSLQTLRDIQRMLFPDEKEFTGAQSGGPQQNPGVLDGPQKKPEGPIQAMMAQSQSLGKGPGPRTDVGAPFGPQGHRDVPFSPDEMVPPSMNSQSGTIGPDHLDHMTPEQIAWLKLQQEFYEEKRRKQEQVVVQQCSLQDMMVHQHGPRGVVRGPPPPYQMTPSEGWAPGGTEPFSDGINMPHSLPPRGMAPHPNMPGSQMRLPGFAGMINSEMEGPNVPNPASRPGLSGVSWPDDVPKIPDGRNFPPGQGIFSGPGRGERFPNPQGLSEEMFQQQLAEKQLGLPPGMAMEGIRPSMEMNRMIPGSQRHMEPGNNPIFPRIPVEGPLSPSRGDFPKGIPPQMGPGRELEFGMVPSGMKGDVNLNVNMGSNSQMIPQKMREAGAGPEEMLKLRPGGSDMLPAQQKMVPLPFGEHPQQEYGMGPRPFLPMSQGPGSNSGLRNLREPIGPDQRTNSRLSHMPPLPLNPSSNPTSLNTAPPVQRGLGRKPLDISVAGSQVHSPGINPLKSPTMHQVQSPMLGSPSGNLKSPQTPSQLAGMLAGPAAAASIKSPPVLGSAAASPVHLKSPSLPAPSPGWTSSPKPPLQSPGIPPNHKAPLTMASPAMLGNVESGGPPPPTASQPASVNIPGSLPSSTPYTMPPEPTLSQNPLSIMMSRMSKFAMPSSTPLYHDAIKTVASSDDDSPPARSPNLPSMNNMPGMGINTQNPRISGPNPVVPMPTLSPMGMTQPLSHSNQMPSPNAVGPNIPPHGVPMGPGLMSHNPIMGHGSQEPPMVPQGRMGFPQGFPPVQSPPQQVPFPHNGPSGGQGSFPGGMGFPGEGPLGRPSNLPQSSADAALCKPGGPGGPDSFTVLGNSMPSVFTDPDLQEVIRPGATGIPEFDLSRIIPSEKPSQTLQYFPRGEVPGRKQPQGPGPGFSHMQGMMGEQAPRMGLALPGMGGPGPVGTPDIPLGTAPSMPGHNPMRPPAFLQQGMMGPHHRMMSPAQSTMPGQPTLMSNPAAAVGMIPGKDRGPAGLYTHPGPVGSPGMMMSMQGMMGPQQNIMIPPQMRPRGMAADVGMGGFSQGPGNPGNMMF
Kind of assay: Inhibition of full length beta-catenin (1 to 781 residues) (unknown origin) expressed in Escherichia coli BL21 (DE3)/N-terminal biotinylated human BCL9 HD2 (350 to 375 residues) protein-protein interaction incubated for 1 hr by Alphascreen assay.

Assay [17] addresses T2, beta-catenin-B-cell lymphoma 9 protein complex. Put plainly: Inhibition of full length beta-catenin (1 to 781 residues) (unknown origin) expressed in Escherichia coli BL21 (DE3)/N-terminal biotinylated human BCL9 HD2 (350 to 375 residues) protein-protein interaction assessed as inhibition constant incubated for 1 hr by Alphascreen assay.

Activity calls are given as the source filed them. No cut-off for these calls is given here.

Catenin beta-1/Cadherin-1 (Homo sapiens), sequence (P12830 155-882 partner limits assumed, one chain of several): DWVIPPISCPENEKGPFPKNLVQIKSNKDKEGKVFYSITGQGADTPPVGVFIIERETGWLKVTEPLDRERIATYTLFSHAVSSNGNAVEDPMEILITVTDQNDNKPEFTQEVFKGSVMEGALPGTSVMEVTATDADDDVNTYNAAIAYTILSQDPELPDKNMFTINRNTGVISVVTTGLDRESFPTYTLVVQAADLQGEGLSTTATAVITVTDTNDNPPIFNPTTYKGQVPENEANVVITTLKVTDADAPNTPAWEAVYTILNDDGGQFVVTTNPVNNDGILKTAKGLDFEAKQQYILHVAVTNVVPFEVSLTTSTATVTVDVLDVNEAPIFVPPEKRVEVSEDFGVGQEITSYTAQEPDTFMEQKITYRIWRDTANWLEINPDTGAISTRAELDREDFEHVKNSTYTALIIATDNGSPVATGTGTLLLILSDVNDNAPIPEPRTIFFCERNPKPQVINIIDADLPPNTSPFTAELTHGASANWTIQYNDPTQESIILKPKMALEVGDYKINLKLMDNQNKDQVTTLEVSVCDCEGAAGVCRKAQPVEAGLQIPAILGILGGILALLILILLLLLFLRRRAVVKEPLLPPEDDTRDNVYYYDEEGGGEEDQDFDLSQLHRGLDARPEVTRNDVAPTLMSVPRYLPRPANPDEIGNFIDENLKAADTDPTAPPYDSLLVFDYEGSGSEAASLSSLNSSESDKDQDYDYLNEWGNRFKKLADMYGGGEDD

Turning to `CC(C)(C)C1CCC(c2cc(C(=O)N3CCC(Oc4cc(N5CCNCC5)ccc4C#N)CC3)ccc2O[C@H]2CCNC2)CC1` (mixture of isomers; cis), the inhibition entry (in assay [1]; with SW480 [3]) was “Active” throughout. Also, the Ratio Ki in the assay filed under Homo sapiens [2] was 20. Further, the residual activity in the assay on SW480 [4] worked out at 96.5%; in the assay with SW480 [7], 104%; with SW480 [10], 100%. The inhibition entry in assay [5] was “inactive”. Also, the response, % of control is 18.6% in the assay on SW480 [6], 99.6% in the assay on SW480 [9], 9.28% in the assay with SW480 [11] and 41.8% in the assay on SW480 [12]. The Ratio IC50 in the assay listed under Homo sapiens [8] was 4.2.
With `CC(C)(C)C1CCC(c2cc(C(=O)N3CCC(Oc4cc(N5CCNCC5)ccc4C#N)CC3)ccc2O[C@@H]2CNC[C@H]2OCCOCCOCCNC(=O)CCCC[C@@H]2SC[C@@H]3NC(=O)N[C@@H]32)CC1` (mixture of isomers), the inhibition entry in the assay on SW480 [13] and with SW480 [15] was “inactive” in each case. Also, the inhibition result in assay [14] was “Active”.
In general, IC50 refers to the concentration that inhibits the measured activity by half. Low readings indicate greater potency, high ones weaker potency. A word on the Ki: it is the dissociation constant of the complex between target and ligand, obtained from inhibition or displacement. In [16], `CC(C)(C)C1CCC(c2cc(C(=O)N3CCC(Oc4cc(N5CCNCC5)cc(C(F)(F)F)c4)CC3)ccc2O[C@H]2CCNC2)CC1` (some centres not stated) gave an IC50 of 4.3 µM. In addition, the Ki in assay [17] turned out to be 3.6 µM.
The like results for `O=C(c1ccc(O[C@H]2CCNC2)c(C2CCCCC2)c1)N1CCC(Oc2cc(F)cc(N3CCNCC3)c2)CC1` were, in that order, 57 µM and 46 µM.
`CC(C)(C)C1CCC(c2cc(C(=O)N3CCC(Oc4cc(N5CCNCC5)ccc4F)CC3)ccc2O[C@H]2CCNC2)CC1` (mixture of isomers): half-maximal inhibition in assay [16] (IC50) required 6.2 µM. Further, the Ki in assay [17] stood at 5 µM.
The like results for `O=C(c1ccc(O[C@H]2CCNC2)c(-c2ccc3cn[nH]c3c2)c1)N1CCC(Oc2cc(F)cc(N3CCNCC3)c2)CC1` were, in that order, 11 µM and 10 µM.
`O=C(c1ccc(O[C@H]2CCNC2)c(C2CCCCC2)c1)N1CCC(Oc2cc(F)cc(N3CC4(CCNCC4)C3)c2)CC1` showed an IC50 in assay [16] greater than 100 µM. For the same compound, the Ki in assay [17] was greater than 84 µM.
The like results for `O=C(c1ccc(O[C@H]2CCNC2)c(-c2ccc(C(F)(F)F)cc2)c1)N1CCC(Oc2cc(F)cc(N3CCNCC3)c2)CC1` were, in that order, 18 µM and 16 µM.
The corresponding values for `NCCCC(=O)Nc1cc(F)cc(OC2CCN(C(=O)c3ccc(O[C@H]4CCNC4)c(C4CCCCC4)c3)CC2)c1` are 73 µM and 66 µM.
The like results for `CC(C)(C)C1CCC(c2cc(C(=O)N3CCC(Oc4cc(N5CCNCC5)cc(F)c4F)CC3)ccc2O[C@H]2CCNC2)CC1` (mixture of isomers) were, in that order, 3.7 µM and 3.1 µM.
Take `CC(C)(C)C1CCC(c2cc(C(=O)N3CCC(Oc4ccc(F)c(N5CCNCC5)c4)CC3)ccc2O[C@H]2CCNC2)CC1` (mixture of isomers): in assay [16], the IC50 was 6.7 µM. In [17], the Ki amounted to 5.6 µM.
For the compound `CC(C)(C)C1CCC(c2cc(C(=O)N3CCC(Oc4cc(N5CCNCC5)ccc4C#N)CC3)ccc2O[C@H]2CCNC2)CC1` (mixture of isomers; 44), half-maximal inhibition in assay [16] (IC50) was put at 3.3 µM. Also, in [17], the Ki turned out to be 2.7 µM.
The corresponding values for `O=C(c1ccc(O[C@H]2CCNC2)c(C2CCCCC2)c1)N1CCC(Oc2cc(F)cc(N3C[C@H]4CNC[C@H]4C3)c2)CC1` are greater than 100 µM and greater than 84 µM.
